# What was measured:
# Assay type in all cases: cell-based
# [1] = target: T1, human TLR8 (Homo sapiens, UniProt Q9NR97); assay: TLR8 inhibition reporter assay (HEK-Blue cells, SEAP reporter); conditions: HEK-Blue cells overexpressing human TLR8; stimulated with R848 15.9 μM; SEAP read after 22 hour; dose range 0.05 nM-50 μM
# T1 construct: host or cells: HEK-Blue cells
# T1 sequence (Q9NR97 27-1041): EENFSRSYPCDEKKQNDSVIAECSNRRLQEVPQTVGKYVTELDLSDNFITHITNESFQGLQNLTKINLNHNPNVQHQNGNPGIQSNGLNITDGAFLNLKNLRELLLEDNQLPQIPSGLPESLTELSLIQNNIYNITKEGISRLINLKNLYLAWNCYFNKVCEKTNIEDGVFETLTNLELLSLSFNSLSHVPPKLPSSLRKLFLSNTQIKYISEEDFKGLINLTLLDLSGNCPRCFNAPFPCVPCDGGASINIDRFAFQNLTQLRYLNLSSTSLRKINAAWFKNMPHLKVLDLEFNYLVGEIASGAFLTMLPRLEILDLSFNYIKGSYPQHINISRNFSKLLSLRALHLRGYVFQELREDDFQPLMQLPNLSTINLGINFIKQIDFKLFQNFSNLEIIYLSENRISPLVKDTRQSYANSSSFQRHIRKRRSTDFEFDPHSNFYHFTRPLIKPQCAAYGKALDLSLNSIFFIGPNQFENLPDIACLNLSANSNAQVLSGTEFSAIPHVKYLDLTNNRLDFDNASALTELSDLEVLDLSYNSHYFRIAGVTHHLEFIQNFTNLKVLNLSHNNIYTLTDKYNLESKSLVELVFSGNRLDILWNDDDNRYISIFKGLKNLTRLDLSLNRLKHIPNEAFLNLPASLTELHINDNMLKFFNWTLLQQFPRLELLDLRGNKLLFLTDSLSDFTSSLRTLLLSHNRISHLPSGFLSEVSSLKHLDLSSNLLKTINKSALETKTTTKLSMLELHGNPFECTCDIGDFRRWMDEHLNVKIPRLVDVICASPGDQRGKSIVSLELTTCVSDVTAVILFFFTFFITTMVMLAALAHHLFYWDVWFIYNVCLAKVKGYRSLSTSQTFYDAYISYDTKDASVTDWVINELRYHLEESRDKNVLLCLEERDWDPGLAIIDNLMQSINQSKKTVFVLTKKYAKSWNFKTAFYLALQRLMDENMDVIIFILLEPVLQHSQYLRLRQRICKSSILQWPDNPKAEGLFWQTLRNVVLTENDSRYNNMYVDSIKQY
# Outline: (§1)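 HEK-Blue cells with NF-κB/AP-1-driven SEAP pre-treated 30 min with compounds (0.05 nM-50 μM), then stimulated with gardiquimod 7.5 μM (TLR7), R848 15.9 μM (TLR8) or ODN2006 5 nM (TLR9). SEAP read after 22 h at 37° C; % inhibition relative to agonist+DMSO and reference-inhibitor wells.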
# [2] = target: T2, human TLR7 (Homo sapiens, UniProt Q9NYK1); assay: TLR7 inhibition reporter assay (HEK-Blue cells, SEAP reporter); conditions: HEK-Blue cells overexpressing human TLR7; stimulated with gardiquimod 7.5 μM; SEAP read after 22 hour; dose range 0.05 nM-50 μM
# T2 construct: host or cells: HEK-Blue cells
# T2 sequence (Q9NYK1 27-1049): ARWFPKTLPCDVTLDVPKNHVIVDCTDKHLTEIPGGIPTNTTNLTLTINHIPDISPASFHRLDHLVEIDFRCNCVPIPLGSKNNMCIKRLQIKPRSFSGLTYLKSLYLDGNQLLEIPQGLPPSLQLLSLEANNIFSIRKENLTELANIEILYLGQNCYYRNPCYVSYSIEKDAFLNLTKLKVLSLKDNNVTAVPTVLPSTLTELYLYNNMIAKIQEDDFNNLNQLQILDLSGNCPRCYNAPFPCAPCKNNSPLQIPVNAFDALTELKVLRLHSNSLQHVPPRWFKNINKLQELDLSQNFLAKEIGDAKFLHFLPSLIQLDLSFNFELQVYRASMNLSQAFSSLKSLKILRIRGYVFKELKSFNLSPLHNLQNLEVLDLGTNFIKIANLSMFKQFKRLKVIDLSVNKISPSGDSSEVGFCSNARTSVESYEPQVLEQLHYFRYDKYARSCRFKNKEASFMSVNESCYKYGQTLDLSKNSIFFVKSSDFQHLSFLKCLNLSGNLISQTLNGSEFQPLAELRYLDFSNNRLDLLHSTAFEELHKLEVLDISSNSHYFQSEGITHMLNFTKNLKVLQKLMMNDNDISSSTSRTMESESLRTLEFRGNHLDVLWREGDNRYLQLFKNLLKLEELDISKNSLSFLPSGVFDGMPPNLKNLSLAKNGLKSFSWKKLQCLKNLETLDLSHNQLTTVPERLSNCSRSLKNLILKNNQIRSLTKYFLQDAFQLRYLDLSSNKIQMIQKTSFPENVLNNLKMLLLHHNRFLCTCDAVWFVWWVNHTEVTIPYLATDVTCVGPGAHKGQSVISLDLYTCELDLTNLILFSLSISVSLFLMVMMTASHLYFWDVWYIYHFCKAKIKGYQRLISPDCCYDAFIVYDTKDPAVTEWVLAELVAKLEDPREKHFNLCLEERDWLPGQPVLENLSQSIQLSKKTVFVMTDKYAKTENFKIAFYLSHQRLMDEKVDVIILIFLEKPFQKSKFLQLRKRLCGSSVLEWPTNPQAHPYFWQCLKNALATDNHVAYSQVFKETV
# Outline: as §1
# [3] = target: T3, human TLR9 (Homo sapiens, UniProt Q9NR96); assay: TLR9 inhibition reporter assay (HEK-Blue cells, SEAP reporter); conditions: HEK-Blue cells overexpressing human TLR9; stimulated with ODN2006 5 nM; SEAP read after 22 hour; dose range 0.05 nM-50 μM
# T3 construct: host or cells: HEK-Blue cells
# T3 sequence (Q9NR96 26-1032): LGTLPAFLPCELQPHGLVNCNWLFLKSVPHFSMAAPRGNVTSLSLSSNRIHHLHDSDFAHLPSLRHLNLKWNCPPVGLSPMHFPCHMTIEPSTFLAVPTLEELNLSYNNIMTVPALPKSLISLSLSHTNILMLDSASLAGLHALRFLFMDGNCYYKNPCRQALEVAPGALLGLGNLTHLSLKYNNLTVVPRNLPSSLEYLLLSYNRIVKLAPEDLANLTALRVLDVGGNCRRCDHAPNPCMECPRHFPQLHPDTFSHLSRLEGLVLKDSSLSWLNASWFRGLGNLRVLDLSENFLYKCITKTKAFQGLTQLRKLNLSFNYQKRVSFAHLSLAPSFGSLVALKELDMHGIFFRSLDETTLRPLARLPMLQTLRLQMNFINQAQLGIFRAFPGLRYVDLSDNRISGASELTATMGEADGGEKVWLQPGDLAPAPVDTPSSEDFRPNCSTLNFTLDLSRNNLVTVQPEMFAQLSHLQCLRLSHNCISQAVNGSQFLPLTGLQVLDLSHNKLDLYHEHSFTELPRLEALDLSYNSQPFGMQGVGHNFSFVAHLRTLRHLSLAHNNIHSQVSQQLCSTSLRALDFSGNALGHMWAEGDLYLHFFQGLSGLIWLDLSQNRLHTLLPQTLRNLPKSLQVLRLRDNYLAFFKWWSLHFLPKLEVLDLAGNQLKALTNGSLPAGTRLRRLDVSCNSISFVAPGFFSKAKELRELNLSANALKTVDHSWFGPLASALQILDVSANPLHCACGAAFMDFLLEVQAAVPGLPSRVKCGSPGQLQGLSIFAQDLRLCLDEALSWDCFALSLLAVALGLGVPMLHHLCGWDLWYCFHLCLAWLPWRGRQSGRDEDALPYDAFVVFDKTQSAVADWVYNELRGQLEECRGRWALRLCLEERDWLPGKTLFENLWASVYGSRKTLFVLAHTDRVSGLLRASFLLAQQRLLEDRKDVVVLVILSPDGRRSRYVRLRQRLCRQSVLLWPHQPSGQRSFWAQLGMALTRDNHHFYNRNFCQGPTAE
# Outline: as §1
Compound,IC50 [1],IC50 [2],IC50 [3]
"CC(C)N1CCN(c2ccc(-c3ccc4[nH]c(=O)c(-c5ccc(Cl)cc5Cl)cc4c3)cc2)CC1 [Example 38, 3-(2,4-dichlorophenyl)-6-{4-[4-(propan-2-yl)piperazin-1-yl]phenyl}-1,2-dihydroquinolin-2-one]",≥ 50000 nM,8880 nM,376 nM
"CN1CCC(c2ccc(-c3ccc4[nH]c(=O)c(-c5ccc(S(C)(=O)=O)cc5)cc4c3)cc2)CC1 [Example 76, 3-(4-methanesulfonylphenyl)-6-[4-(1-methylpiperidin-4-yl)phenyl]-1,2-dihydroquinolin-2-one]",9850 nM,2030 nM,261 nM
"CCc1c(-c2ccc(S(C)(=O)=O)cc2)c(=O)n(C)c2ccc(-c3ccc(C4CCN(C5COC5)CC4)cc3)cc12 [Example 101, 4-ethyl-3-(4-methanesulfonylphenyl)-1-methyl-6-{4-[1-(oxetan-3-yl)piperidin-4-yl]phenyl}-1,2-dihydroquinolin-2-one]",1340 nM,≥ 50000 nM,2370 nM
"COc1ccc(-c2cc3cc(-c4ccc(N5CCN(C(C)C)CC5)cc4)ccc3[nH]c2=O)cc1OC [Example 43, 3-(3,4-dimethoxyphenyl)-6-{4-[4-(propan-2-yl)piperazin-1-yl]phenyl}-1,2-dihydroquinolin-2-one]",≥ 50000 nM,5020 nM,553 nM
"CC(C)N1CCN(c2ccc(-c3ccc4[nH]c(=O)c(-c5ccc(-n6cnnn6)cc5)cc4c3)cc2)CC1 [Example 7, 3-(4-(1H-tetrazol-1-yl)phenyl)-6-(4-(4-isopropylpiperazin-1-yl)phenyl)quinolin-2(1H)-one]",≥ 50000 nM,1130 nM,80 nM
"CCc1c(-c2ccc(S(C)(=O)=O)cc2)c(=O)n(C)c2ccc(-c3ccc(N4CCN(C(C)C)CC4)cc3)cc12 [Example 77, 4-ethyl-3-(4-methanesulfonylphenyl)-1-methyl-6-{4-[4-(propan-2-yl)piperazin-1-yl]phenyl}-1,2-dihydroquinolin-2-one]",361 nM,10200 nM,267 nM
"CC(C)N1CCC(c2ccc(Nc3ccc4c(c3)cc(-c3ccc(S(C)(=O)=O)cc3)c(=O)n4C)cc2)CC1 [Example 75, 3-(4-methanesulfonylphenyl)-1-methyl-6-({4-[1-(propan-2-yl)piperidin-4-yl]phenyl}amino)-1,2-dihydroquinolin-2-one]",≥ 50000 nM,6630 nM,253 nM
"CCc1c(-c2ccc(S(C)(=O)=O)cc2)c(=O)n(C)c2ccc(-c3ccc(C4CCN(C(C)C)CC4)cc3)cc12 [Example 86, 4-ethyl-3-(4-methanesulfonylphenyl)-1-methyl-6-{4-[1-(propan-2-yl)piperidin-4-yl]phenyl}-1,2-dihydroquinolin-2-one]",1550 nM,10400 nM,406 nM
"CC(=O)Nc1ccc(-c2cc3cc(-c4ccc(N5CCN(C(C)C)CC5)cc4)ccc3n(C)c2=O)cc1 [Example 57, N-[4-(1-methyl-2-oxo-6-{4-[4-(propan-2-yl)piperazin-1-yl]phenyl}-1,2-dihydroquinolin-3-yl)phenyl]acetamide]",83 nM,1220 nM,615 nM
"CC(C)N1CCN(c2ccc(-c3ccc4[nH]c(=O)c(-c5ccccc5NS(C)(=O)=O)cc4c3)cc2)CC1 [Example 29, N-[2-(2-oxo-6-{4-[4-(propan-2-yl)piperazin-1-yl]phenyl}-1,2-dihydroquinolin-3-yl)phenyl]methanesulfonamide]",1830 nM,5860 nM,275 nM
"CC(C)N1CCC(c2ccc(-c3ccc4c(c3)cc(-c3ccc(S(C)(=O)=O)cc3)c(=O)n4CCCO)cc2)CC1 [Example 82, 1-(3-hydroxypropyl)-3-(4-methanesulfonylphenyl)-6-{4-[1-(propan-2-yl)piperidin-4-yl]phenyl}-1,2-dihydroquinolin-2-one]",19100 nM,5500 nM,312 nM
"CC(C)N1CCN(c2ccc(-c3ccc4[nH]c(=O)c(-c5cn(C)c6ccccc56)cc4c3)cc2)CC1 [Example 48, 3-(1-methyl-1H-indol-3-yl)-6-(4-[4-(propan-2-yl)piperazin-1-yl]phenyl}-1,2-dihydroquinolin-2-one]",6880 nM,2150 nM,1160 nM
CC(C)N1CCN(c2ccc(-c3ccc4[nH]c(=O)c(-c5c(Cl)cccc5Cl)cc4c3)cc2)CC1 [Example 37],≥ 50000 nM,5560 nM,367 nM
"CCCn1c(=O)c(-c2ccc(S(C)(=O)=O)cc2)cc2cc(-c3ccc(C4CCN(C(C)C)CC4)cc3)ccc21 [Example 80, 3-(4-methanesulfonylphenyl)-6-{4-[1-(propan-2-yl)piperidin-4-yl]phenyl}-1-propyl-1,2-dihydroquinolin-2-one]",15100 nM,8380 nM,298 nM

# — patent US20260183275A1, “SUBSTITUTED QUINOLONE COMPOUNDS USEFUL AS INHIBITORS OF TLR9” (Bristol-Myers Squibb Company, priority 2022, published 2026)
